US12312355B2, “1H-[1, 2, 3]triazolo[4, 5-h] quinazoline compounds acting as protein kinase inhibitors” (CHENGDU CYNOGEN BIO-PHARMACEUTICAL TECHNOLOGY CO., LTD., priority 2019, dated 2025)
Where a name gives a salt, the structure may show the parent alone.

What was measured:
Type in all cases: biochemical
Details in all cases: class symbols
CDK4/cyclin D3 = CDK4/cyclin D3 (Homo sapiens (Human), UniProt P11802); assay: Kinase activity assay, Caliper Mobility Shift Assay, CDK4/cyclin D3
Procedure: The inhibitory effect of the compound on the kinase CDK4/cyclin D3 was tested by the Caliper Mobility Shift Assay method. The final test concentration of the compound was 10 concentrations, which started from […] and were obtained by three-fold dilution. 5 μL of 5-fold final concentration compound and 10 μL of CDK4/Cyclin D3 kinase solution with final concentration of 10 nM were added to the 384-well reaction plate respectively, and pre incubated at room temperature for 10 minutes (the negative control well contained 10 μL kinase buffer and 5 μL 5% DMSO; the positive control well contained 10 μL kinase solution and 5 μL 5% DMSO). The mixture of 10 μL ATP with a final concentration of 250 μM and the corresponding substrate peptide was added to initiate the reaction, and the mixture was reacted at room temperature for 150 minutes. 30 μL of stop test solution containing EDTA was added to stop the kinase reaction. Conversion rate was read by Caliper EZ Reader. Conversion inhibition rate %=(average conversion rate of positive control %−sample conversion rate %)/(average conversion rate of positive control %−average conversion rate of negative control %). Wherein: the negative control well represents conversion rate reading of wells without enzyme activity; the positive control well represents conversion rate reading of wells without compound inhibition. The log value of concentration was taken as the X-axis and the percentage inhibition rate was the Y-axis. […] Calculation formula: Y=Bottom+(Top−Bottom)/(1+10^((Log IC50−X)*HillSlope)).

CDK6/cyclin D3 = CDK6/cyclin D3 (Homo sapiens (Human), UniProt Q00534); assay: Kinase activity assay, Caliper Mobility Shift Assay, CDK6/cyclin D3
Chain of CDK6/cyclin D3 (Q00534 whole entry, species assumed): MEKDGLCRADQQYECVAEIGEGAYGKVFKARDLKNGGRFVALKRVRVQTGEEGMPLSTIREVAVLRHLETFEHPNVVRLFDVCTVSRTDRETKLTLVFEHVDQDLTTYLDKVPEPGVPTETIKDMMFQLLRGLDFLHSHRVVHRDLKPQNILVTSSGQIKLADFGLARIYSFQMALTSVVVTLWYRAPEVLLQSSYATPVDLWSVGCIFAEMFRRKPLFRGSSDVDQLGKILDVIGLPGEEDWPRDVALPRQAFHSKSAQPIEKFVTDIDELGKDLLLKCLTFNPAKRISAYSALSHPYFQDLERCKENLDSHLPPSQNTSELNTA
Chain of CDK6/cyclin D3 (P30281 whole entry partner, species assumed): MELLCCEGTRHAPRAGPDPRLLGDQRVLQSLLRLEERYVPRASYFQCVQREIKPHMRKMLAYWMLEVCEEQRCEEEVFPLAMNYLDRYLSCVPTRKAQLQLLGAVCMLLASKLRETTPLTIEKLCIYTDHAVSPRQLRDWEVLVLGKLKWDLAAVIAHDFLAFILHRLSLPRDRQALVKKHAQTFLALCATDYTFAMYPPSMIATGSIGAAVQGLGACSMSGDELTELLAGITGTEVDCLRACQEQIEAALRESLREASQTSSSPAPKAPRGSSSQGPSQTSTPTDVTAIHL

CDK2/cyclin A2 = CDK2/cyclin A2 (Homo sapiens (Human), UniProt P24941); assay: Kinase activity assay, Caliper Mobility Shift Assay, CDK2/cyclin A2
Procedure: The inhibitory effect of the compound on the kinase CDK4/cyclin D3 was tested by the Caliper Mobility Shift Assay method. The final test concentration of the compound was 10 concentrations, which started from […] and were obtained by three-fold dilution. 5 μL of 5-fold final concentration compound and 10 μL of CDK4/Cyclin D3 kinase solution with final concentration of 10 nM were added to the 384-well reaction plate respectively, and pre incubated at room temperature for 10 minutes (the negative control well contained 10 μL kinase buffer and 5 μL 5% DMSO; the positive control well contained 10 μL kinase solution and 5 μL 5% DMSO). The mixture of 10 μL ATP with a final concentration of 250 μM and the corresponding substrate peptide was added to initiate the reaction, and the mixture was reacted at room temperature for 150 minutes. 30 μL of stop test solution containing EDTA was added to stop the kinase reaction. Conversion rate was read by Caliper EZ Reader. Conversion inhibition rate %=(average conversion rate of positive control %−sample conversion rate %)/(average conversion rate of positive control %−average conversion rate of negative control %). Wherein: the negative control well represents conversion rate reading of wells without enzyme activity; the positive control well represents conversion rate reading of wells without compound inhibition. The log value of concentration was taken as the X-axis and the percentage inhibition rate was the Y-axis. The dose-effect curve was fitted by log(inhibitor) vs. response—Variable slope of the analysis software GraphPad Prism 5, and the IC50 value of each compound on the enzyme activity was obtained. Calculation formula: Y=Bottom+(Top−Bottom)/(1+10^((Log IC50−X)*HillSlope)).
The IC50 values of the compounds of the present disclosure for CDK6/cyclin D3 and CDK2/cyclin A2 were tested in a similar manner.

Chain of CDK4/cyclin D3 (P11802 whole entry, species assumed): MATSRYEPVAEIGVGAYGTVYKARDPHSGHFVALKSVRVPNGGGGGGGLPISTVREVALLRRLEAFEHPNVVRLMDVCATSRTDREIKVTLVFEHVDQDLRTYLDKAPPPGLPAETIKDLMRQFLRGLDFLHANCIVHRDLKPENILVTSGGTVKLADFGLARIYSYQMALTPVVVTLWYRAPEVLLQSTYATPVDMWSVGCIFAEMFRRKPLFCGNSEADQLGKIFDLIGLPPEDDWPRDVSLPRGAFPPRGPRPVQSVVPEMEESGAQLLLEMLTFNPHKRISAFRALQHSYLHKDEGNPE
Chain of CDK4/cyclin D3 (P30281 whole entry partner, species assumed): as the sequence (P30281 whole entry partner, species assumed) above

IC50 (CDK4/cyclin D3) | IC50 (CDK6/cyclin D3) | IC50 (CDK2/cyclin A2) | Compound
< 0.01 µM | < 0.01 µM | < 0.01 µM | CC(C)n1nnc2ccc3cnc(Nc4ccc(N5CCOCC5)cc4)nc3c21 [Compound I-26, 1-Isopropyl-N-(4-morpholinophenyl)-1H-[1,2,3]triazolo[4,5-h]quinazolin-8-amine]
0.05 to 0.1 µM | 0.05 to 0.1 µM | 0.05 to 0.1 µM | CC(C)n1nnc2ccc3cnc(Nc4ccc(N5CCC(CCCO)CC5)cc4)nc3c21 [Compound I-27, 3-(1-(4-((1-isopropyl-1H-[1,2,3]triazolo [4,5-h]quinazolin-8-yl)amino)phenyl)pi-peridin-4-yl)propan-1-ol]
< 0.01 µM | < 0.01 µM | < 0.01 µM | CC(C)n1nnc2ccc3cnc(Nc4ccc(N5CCNCC5)cc4F)nc3c21 [Compound I-28, N-(2-Fluoro-4-(piperazin-1-yl)phenyl)-1-isopropyl-1H-[1,2,3]triazolo[4,5-h]quin-azolin-8-amine hydrochloride]
0.05 to 0.1 µM | 0.05 to 0.1 µM | 0.05 to 0.1 µM | CC(C)n1nnc2ccc3cnc(Nc4ccc(N5CCOCC5)cc4F)nc3c21 [Compound I-29, N-(2-Fluoro-4-morpholinophenyl)-1-iso-propyl-1H-[1,2,3]triazolo[4,5-h]quinazo-lin-8-amine]
< 0.01 µM | < 0.01 µM | < 0.01 µM | COc1cc(N2CCNCC2)ccc1Nc1ncc2ccc3nnn(C(C)C)c3c2n1 [Compound I-30, 1-Isopropyl-N-(2-methoxy-4-(piperazin-1-yl)phenyl)-1H-[1,2,3]triazolo[4,5-h]quin-azolin-8-amine hydrochloride]
0.05 to 0.1 µM | 0.05 to 0.1 µM | 0.05 to 0.1 µM | COc1cc(N2CCN(C)CC2)ccc1Nc1ncc2ccc3nnn(C(C)C)c3c2n1 [Compound I-31, 1-Isopropyl-N-(2-methoxy-4-(4-methyl-piperazin-1-yl)phenyl)-1H-[1,2,3]triazo-lo[4,5-h]quinazolin-8-amine]
< 0.01 µM | < 0.01 µM | < 0.01 µM | CC(C)n1nnc2ccc3cnc(Nc4ccc(N5CCNCC5)c(F)c4)nc3c21 [Compound I-32, N-(3-Fluoro-4-(piperazin-1-yl)phenyl)-1-isopropyl-1H-[1,2,3]triazolo[4,5-h]quin-azolin-8-amine hydrochloride]
< 0.01 µM | < 0.01 µM | < 0.01 µM | CC(C)n1nnc2ccc3cnc(Nc4ccc(N5CCN(C)CC5)c(F)c4)nc3c21 [Compound I-33, N-(3-Fluoro-4-(4-methylpiperazin-1-yl)phenyl)-1-isopropyl-1H-[1,2,3]triazolo[4,5-h]quinazolin-8-amine]
< 0.01 µM | < 0.01 µM | < 0.01 µM | CCN1CCN(c2ccc(Nc3ncc4ccc5nnn(C(C)C)c5c4n3)cc2F)CC1 [Compound I-34, N-(4-(4-Ethylpiperazin-1-yl)-3-fluorophe-nyl)-1-isopropyl-1H-[1,2,3]triazolo[4,5-h]quinazolin-8-amine hydrochloride]
0.01 to 0.05 µM | 0.01 to 0.05 µM | 0.01 to 0.05 µM | CC(C)n1nnc2ccc3cnc(Nc4ccc(N5CCOCC5)c(F)c4)nc3c21 [Compound I-35, N-(3-Fluoro-4-morpholinophenyl)-1-iso-propyl-1H-[1,2,3]triazolo[4,5-h]quinazo-lin-8-amine hydrochloride]
< 0.01 µM | < 0.01 µM | < 0.01 µM | CC(C)n1nnc2ccc3cnc(Nc4cccc(S(N)(=O)=O)c4)nc3c21 [Compound I-36, 3-((1-isopropyl-1H-[1,2,3]triazolo[4,5-h]quinazolin-8-yl)amino)benzenesulfonamide hydrochloride]
< 0.01 µM | < 0.01 µM | < 0.01 µM | CC(C)n1nnc2ccc3cnc(Nc4ccc(N(CCN5CCOCC5)S(C)(=O)=O)cc4)nc3c21 [Compound I-37, N-(4-((1-Isopropyl-1H-[1,2,3]triazolo[4,5-h]quinazolin-8-yl)amino)phenyl)-N-(2-morpholinoethyl)methanesulfonamide]
< 0.01 µM | < 0.01 µM | < 0.01 µM | CC(C)n1nnc2ccc3cnc(Nc4ccc(OCCN(C)C)cc4)nc3c21 [Compound I-38, N-(4-(2-(Dimethylamino)ethoxy)phenyl)-1-isopropyl-1H-[1,2,3]triazolo[4,5-h]quin-azolin-8-amine]
< 0.01 µM | < 0.01 µM | < 0.01 µM | CC(C)n1nnc2ccc3cnc(Nc4ccc(C(=O)N5CCNCC5)cc4)nc3c21 [Compound I-39, (4-((1-Isopropyl-1H-[1,2,3]triazolo[4,5-h]quinazolin-8-yl)amino)phenyl)(piper-azin-1-yl)methanone hydrochloride]
< 0.01 µM | < 0.01 µM | < 0.01 µM | CC(C)n1nnc2ccc3cnc(Nc4ccc(C(=O)N5CCN(C)CC5)cc4)nc3c21 [Compound I-40]
